Assay type in all cases: cell-based
In experiment [1] the target is T1, IKZF1 (Homo sapiens, UniProt Q13422+Q96SW2).
T1 construct: endogenous in cells; host or cells: hPBMC
The experiment in a line: Western blot degradation of IKZF1 in hPBMC. The protocol:
(§1) Conventional Western blot assay was performed to evaluate the effects of the compounds of the present disclosure on the expression of target proteins in cells.
(§2) • (1) Cell Seeding and Protein Harvesting: The selected cells were processed according to the cell seeding procedure and protein harvesting procedure in Table III-2.
(§3) • (2) To the collected supernatant, 5×SDS sample loading buffer was added, followed by denaturation at 95° C. for 5 minutes. The denatured samples were then separated by SDS-PAGE electrophoresis on a polyacrylamide gel. Proteins were transferred to a nitrocellulose membrane ([…] NC membrane), blocked with blocking buffer at room temperature for 1 hour, and subjected to antibody incubation and development procedures according to the antibody manufacturer's instructions (Cell Signaling Technology).
(§4) Half-Maximal Degradation Concentration value (the drug concentration required for degrading proteins by 50%, abbreviated as DC50) reads method: comparing the grayscale values of Western blot bands from drug-treated samples with those from blank DMSO-treated controls, and identifying the drug concentration range at which the grayscale value is half that of the DMSO-treated control bands.
(§5) DC50 values can be calculated using ImageJ software to measure grayscale values of Western blot bands from drug-treated samples. The concentration-response curve is fitted to estimate the drug concentration corresponding to half the grayscale value.
(§6) Target protein remaining (0%) refers to the percentage of target protein remaining in hPBMC cells after treatment with protein degrader compounds.
(§7) Calculation method for target protein remaining (0%): Use ImageJ software to measure grayscale values of Western blot bands from drug (protein degrader)-treated samples. The grayscale value of drug-treated bands is divided by that of internal control protein bands, and the resulting quotient is normalized to obtain the relative percentage of remaining target protein after protein degrader treatment.

For experiment [2], the target named is T2, GSPT1 (Homo sapiens, UniProt P15170+Q96SW2).
T2 construct: endogenous in cells; host or cells: hPBMC
The experiment in a line: Western blot degradation of GSPT1 in hPBMC. The protocol:
as §1, §2, §3, §4, §5, §6, §7
In general terms: Immunoblotting shows a protein as a band on a membrane.

The target of experiment [3] is T3, IKZF3 (Homo sapiens, UniProt Q96SW2+Q9UKT9).
T3 construct: endogenous in cells; host or cells: hPBMC
In words: Western blot degradation of IKZF3 in hPBMC. The protocol: as §1, §2, §3, §4, §5, §6, §7

For experiment [4], the target named is T4, IKZF2 (Homo sapiens, UniProt Q96SW2+Q9UKS7).
T4 construct: endogenous in cells; host or cells: hPBMC
The experiment in a line: Western blot degradation of IKZF2 in hPBMC. The protocol:
as §1, §2, §3, §4, §5, §6, §7

The target of experiment [5] is T5, CK1a (Homo sapiens, UniProt P48729+Q96SW2).
T5 construct: endogenous in cells; host or cells: hPBMC
The experiment in a line: Western blot degradation of CK1a in hPBMC. The protocol:
as §1, §2, §3, §4, §5, §6, §7

Experiment [6] deals with T6, WEE1 (Homo sapiens, UniProt P30291+Q96SW2).
T6 construct: endogenous in cells; host or cells: hPBMC
The experiment in a line: Western blot degradation of WEE1 in hPBMC. The protocol:
as §1, §2, §3, §4, §5, §6, §7

T3 sequence (Q9UKT9 whole entry): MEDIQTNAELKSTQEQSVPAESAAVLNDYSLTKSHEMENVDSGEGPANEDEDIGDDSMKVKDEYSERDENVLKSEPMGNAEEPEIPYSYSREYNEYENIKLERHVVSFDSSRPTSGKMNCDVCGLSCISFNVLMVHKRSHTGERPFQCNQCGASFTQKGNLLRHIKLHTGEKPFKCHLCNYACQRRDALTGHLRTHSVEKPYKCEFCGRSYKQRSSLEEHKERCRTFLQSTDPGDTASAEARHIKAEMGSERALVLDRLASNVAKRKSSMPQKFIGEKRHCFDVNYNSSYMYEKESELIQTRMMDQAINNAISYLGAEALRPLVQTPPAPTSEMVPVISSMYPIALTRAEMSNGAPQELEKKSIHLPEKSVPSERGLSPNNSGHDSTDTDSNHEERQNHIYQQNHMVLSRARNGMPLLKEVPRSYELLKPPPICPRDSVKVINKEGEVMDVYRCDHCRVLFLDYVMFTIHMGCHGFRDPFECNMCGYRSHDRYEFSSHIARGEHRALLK
T3 sequence (Q96SW2 whole entry): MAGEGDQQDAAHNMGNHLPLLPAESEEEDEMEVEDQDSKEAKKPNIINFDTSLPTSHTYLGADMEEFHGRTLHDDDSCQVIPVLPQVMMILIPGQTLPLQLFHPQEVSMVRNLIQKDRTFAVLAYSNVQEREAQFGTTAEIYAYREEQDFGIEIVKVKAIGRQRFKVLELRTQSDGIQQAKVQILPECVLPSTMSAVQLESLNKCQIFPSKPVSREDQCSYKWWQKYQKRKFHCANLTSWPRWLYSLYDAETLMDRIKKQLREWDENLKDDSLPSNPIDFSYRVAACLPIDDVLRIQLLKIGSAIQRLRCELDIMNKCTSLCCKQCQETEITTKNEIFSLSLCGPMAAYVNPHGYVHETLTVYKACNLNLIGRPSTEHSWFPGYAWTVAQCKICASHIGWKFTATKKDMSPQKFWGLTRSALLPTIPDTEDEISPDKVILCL
T3 sequence (Q16531 whole entry partner): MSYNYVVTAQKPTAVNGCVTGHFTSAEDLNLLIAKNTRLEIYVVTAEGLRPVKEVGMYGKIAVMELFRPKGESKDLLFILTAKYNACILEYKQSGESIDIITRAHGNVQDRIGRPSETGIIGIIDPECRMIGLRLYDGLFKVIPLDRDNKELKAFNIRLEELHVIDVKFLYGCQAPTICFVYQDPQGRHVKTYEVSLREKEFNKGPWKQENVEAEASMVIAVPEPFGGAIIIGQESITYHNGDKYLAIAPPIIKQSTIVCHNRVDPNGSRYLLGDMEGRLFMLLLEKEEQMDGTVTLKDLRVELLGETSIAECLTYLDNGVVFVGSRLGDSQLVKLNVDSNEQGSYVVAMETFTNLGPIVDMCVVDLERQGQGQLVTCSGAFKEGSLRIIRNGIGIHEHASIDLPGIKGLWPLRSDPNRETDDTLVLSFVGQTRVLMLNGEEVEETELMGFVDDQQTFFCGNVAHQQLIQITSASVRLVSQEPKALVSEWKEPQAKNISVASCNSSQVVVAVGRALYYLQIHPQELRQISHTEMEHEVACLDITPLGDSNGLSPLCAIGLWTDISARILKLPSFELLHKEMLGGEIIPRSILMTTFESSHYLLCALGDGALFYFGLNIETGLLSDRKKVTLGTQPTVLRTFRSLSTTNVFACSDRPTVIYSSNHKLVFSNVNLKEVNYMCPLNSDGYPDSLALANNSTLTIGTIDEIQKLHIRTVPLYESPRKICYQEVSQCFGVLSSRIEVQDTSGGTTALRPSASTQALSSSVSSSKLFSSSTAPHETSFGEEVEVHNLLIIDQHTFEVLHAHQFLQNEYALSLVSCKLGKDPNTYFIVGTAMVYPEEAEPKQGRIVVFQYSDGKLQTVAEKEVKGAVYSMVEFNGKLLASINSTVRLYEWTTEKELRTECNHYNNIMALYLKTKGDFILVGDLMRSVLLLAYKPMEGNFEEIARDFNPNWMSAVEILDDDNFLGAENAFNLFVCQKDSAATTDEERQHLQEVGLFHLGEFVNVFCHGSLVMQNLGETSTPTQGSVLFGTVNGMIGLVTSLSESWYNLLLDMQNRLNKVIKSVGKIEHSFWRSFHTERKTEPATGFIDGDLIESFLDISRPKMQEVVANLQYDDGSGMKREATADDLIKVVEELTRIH
T6 sequence (P30291 whole entry): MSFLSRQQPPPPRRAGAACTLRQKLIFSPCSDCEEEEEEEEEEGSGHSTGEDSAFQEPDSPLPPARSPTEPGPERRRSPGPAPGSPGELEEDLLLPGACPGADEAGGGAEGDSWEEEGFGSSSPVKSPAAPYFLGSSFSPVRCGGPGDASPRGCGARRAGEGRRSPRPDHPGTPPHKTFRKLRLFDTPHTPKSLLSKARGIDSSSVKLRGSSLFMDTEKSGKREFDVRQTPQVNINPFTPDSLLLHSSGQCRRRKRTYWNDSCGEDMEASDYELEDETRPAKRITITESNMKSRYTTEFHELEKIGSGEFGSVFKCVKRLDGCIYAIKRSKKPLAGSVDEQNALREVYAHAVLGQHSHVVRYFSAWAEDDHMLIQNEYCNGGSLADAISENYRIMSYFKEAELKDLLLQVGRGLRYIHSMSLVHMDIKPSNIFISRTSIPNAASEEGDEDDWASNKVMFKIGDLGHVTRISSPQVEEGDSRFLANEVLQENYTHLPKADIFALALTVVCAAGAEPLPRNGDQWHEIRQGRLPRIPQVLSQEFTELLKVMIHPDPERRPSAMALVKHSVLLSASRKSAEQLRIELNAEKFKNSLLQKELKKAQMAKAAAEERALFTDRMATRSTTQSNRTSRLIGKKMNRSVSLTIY
T6 sequence (Q96SW2 whole entry): as the sequence (Q96SW2 whole entry) above
T6 sequence (Q16531 whole entry partner): as the sequence (Q16531 whole entry partner) above
T5 sequence (P48729 whole entry): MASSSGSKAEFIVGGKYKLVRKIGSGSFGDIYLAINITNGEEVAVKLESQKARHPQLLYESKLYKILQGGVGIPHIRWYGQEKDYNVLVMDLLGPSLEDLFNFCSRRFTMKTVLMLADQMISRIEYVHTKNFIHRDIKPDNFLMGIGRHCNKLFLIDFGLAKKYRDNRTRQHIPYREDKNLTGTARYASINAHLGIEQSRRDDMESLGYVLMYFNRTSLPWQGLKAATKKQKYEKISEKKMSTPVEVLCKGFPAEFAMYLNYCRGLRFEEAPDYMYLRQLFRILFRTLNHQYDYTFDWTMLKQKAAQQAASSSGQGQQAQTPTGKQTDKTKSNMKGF
T5 sequence (Q96SW2 whole entry): as the sequence (Q96SW2 whole entry) above
T5 sequence (Q16531 whole entry partner): as the sequence (Q16531 whole entry partner) above
T1 sequence (Q13422 whole entry): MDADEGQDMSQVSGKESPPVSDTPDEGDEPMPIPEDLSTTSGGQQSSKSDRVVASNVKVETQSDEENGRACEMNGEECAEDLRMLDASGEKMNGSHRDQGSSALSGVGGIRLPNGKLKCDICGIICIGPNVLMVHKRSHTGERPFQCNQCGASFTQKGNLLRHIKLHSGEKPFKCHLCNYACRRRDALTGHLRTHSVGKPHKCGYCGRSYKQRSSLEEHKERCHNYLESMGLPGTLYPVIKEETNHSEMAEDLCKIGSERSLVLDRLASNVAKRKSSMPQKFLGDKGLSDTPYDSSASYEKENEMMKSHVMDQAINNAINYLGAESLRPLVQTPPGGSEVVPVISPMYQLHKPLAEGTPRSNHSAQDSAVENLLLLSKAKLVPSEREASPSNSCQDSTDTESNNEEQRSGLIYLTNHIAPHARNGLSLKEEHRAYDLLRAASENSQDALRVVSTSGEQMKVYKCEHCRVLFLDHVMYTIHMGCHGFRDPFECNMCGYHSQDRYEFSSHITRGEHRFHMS
T1 sequence (Q96SW2 whole entry): as the sequence (Q96SW2 whole entry) above
T1 sequence (Q16531 whole entry partner): as the sequence (Q16531 whole entry partner) above
T4 sequence (Q9UKS7 whole entry): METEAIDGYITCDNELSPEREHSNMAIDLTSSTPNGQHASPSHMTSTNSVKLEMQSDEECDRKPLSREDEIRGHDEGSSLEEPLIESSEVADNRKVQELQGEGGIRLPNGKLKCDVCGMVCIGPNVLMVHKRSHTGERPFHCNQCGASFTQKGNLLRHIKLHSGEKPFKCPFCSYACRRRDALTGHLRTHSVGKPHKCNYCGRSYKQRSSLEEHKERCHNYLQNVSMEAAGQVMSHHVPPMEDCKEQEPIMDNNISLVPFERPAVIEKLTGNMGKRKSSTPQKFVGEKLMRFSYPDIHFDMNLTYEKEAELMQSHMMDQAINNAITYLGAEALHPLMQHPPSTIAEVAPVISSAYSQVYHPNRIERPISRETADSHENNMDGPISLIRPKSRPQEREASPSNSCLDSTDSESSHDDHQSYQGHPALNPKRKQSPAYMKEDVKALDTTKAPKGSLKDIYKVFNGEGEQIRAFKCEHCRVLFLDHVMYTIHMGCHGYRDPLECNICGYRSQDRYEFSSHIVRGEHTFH
T4 sequence (Q96SW2 whole entry): as the sequence (Q96SW2 whole entry) above
T4 sequence (Q16531 whole entry partner): as the sequence (Q16531 whole entry partner) above

For `NCc1cncc(N2CCC(=O)NC2=O)c1` [GT-07077, 1-(5-(aminomethyl)pyridin-3-yl)dihydropyrimidine-2,4(1H,3H)-dione], in experiment [1], the “Degradation of substrate protein IKZF1 (substrate protein remaining %)” value is recorded as “B (B is defined as substrate protein remaining % > 80%)”. In addition, the “Degradation of substrate protein GSPT1 (substrate protein remaining %)” value in experiment [2] was “A (A is defined as 0% ≤ substrate protein remaining % ≤ 80%)”. For the same molecule, in experiment [3], the “Degradation of substrate protein IKZF3 (substrate protein remaining %)” value is “B (B is defined as substrate protein remaining % > 80%)”. For the same molecule, the “Degradation of substrate protein IKZF2 (substrate protein remaining %)” value in experiment [4] is recorded as “B (B is defined as substrate protein remaining % > 80%)”. Further, the “Degradation of substrate protein CK1a (substrate protein remaining %)” value in experiment [5] is “B (B is defined as substrate protein remaining % > 80%)”. For the same molecule, the “Degradation of substrate protein WEE1 (substrate protein remaining %)” value in experiment [6] was “B (B is defined as substrate protein remaining % > 80%)”.
Turning to `O=C1CCN(c2cc(CCl)ccn2)C(=O)N1` [GT-07078, 1-(4-(chloromethyl)pyridin-2-yl)dihydropyrimidine-2,4(1H,3H)-dione], the “Degradation of substrate protein IKZF1 (substrate protein remaining %)” value in experiment [1] is “B (B is defined as substrate protein remaining % > 80%)”. For the same molecule, the “Degradation of substrate protein GSPT1 (substrate protein remaining %)” value in experiment [2] is reported as “A (A is defined as 0% ≤ substrate protein remaining % ≤ 80%)”. In addition, the “Degradation of substrate protein IKZF3 (substrate protein remaining %)” value in experiment [3] is recorded as “B (B is defined as substrate protein remaining % > 80%)”. Besides, the “Degradation of substrate protein IKZF2 (substrate protein remaining %)” value in experiment [4] is given as “B (B is defined as substrate protein remaining % > 80%)”. In experiment [5], the “Degradation of substrate protein CK1a (substrate protein remaining %)” value is “B (B is defined as substrate protein remaining % > 80%)”. In addition, the “Degradation of substrate protein WEE1 (substrate protein remaining %)” value in experiment [6] is “B (B is defined as substrate protein remaining % > 80%)”.
As for `O=C1CCC(Nc2ncccc2CO)C(=O)N1` (stereo not drawn) [GT-07197, 3-((3-(hydroxymethyl)pyridin-2-yl)amino)piperidine-2,6-dione], the “Degradation of substrate protein IKZF1 (substrate protein remaining %)” value in experiment [1] was “B (B is defined as substrate protein remaining % > 80%)”. Further, the “Degradation of substrate protein GSPT1 (substrate protein remaining %)” value in experiment [2] was “A (A is defined as 0% ≤ substrate protein remaining % ≤ 80%)”. In experiment [3], the “Degradation of substrate protein IKZF3 (substrate protein remaining %)” value is on record as “B (B is defined as substrate protein remaining % > 80%)”. Moreover, the “Degradation of substrate protein IKZF2 (substrate protein remaining %)” value in experiment [4] is on record as “B (B is defined as substrate protein remaining % > 80%)”. Further, the “Degradation of substrate protein CK1a (substrate protein remaining %)” value in experiment [5] was “A (A is defined as 0% ≤ substrate protein remaining % ≤ 80%)”. Further, the “Degradation of substrate protein WEE1 (substrate protein remaining %)” value in experiment [6] is recorded as “B (B is defined as substrate protein remaining % > 80%)”.
With `NCc1ccnc(N2CCC(=O)NC2=O)c1` [GT-07198, 1-(4-(aminomethyl)pyridin-2-yl)dihydropyrimidine-2,4(1H,3H)-dione], the “Degradation of substrate protein IKZF1 (substrate protein remaining %)” value in experiment [1] was “B (B is defined as substrate protein remaining % > 80%)”. Also, the “Degradation of substrate protein GSPT1 (substrate protein remaining %)” value in experiment [2] is on record as “B (B is defined as substrate protein remaining % > 80%)”. For the same molecule, the “Degradation of substrate protein IKZF3 (substrate protein remaining %)” value in experiment [3] is listed as “A (A is defined as 0% ≤ substrate protein remaining % ≤ 80%)”. Besides, the “Degradation of substrate protein IKZF2 (substrate protein remaining %)” value in experiment [4] is recorded as “B (B is defined as substrate protein remaining % > 80%)”. The “Degradation of substrate protein CK1a (substrate protein remaining %)” value in experiment [5] is “B (B is defined as substrate protein remaining % > 80%)”. Further, the “Degradation of substrate protein WEE1 (substrate protein remaining %)” value in experiment [6] is “B (B is defined as substrate protein remaining % > 80%)”.
For the molecule `O=C1CCN(c2cc(CCl)c(F)cn2)C(=O)N1` [GT-07199, 1-(4-(chloromethyl)-5-fluoropyridin-2-yl)dihydropyrimidine-2,4(1H,3H)-dione], the “Degradation of substrate protein IKZF1 (substrate protein remaining %)” value in experiment [1] is listed as “B (B is defined as substrate protein remaining % > 80%)”. Besides, the “Degradation of substrate protein GSPT1 (substrate protein remaining %)” value in experiment [2] is on record as “A (A is defined as 0% ≤ substrate protein remaining % ≤ 80%)”. The “Degradation of substrate protein IKZF3 (substrate protein remaining %)” value in experiment [3] is “A (A is defined as 0% ≤ substrate protein remaining % ≤ 80%)”. Besides, the “Degradation of substrate protein IKZF2 (substrate protein remaining %)” value in experiment [4] is “A (A is defined as 0% ≤ substrate protein remaining % ≤ 80%)”. Moreover, in experiment [5], the “Degradation of substrate protein CK1a (substrate protein remaining %)” value was “A (A is defined as 0% ≤ substrate protein remaining % ≤ 80%)”. Moreover, in experiment [6], the “Degradation of substrate protein WEE1 (substrate protein remaining %)” value was “B (B is defined as substrate protein remaining % > 80%)”.
As for `O=C1CCC(Nc2cc(CO)ccn2)C(=O)N1` (stereo not drawn) [GT-07366, 3-((4-(hydroxymethyl)pyridin-2-yl)amino)piperidine-2,6-dione], in experiment [1], the “Degradation of substrate protein IKZF1 (substrate protein remaining %)” value is on record as “B (B is defined as substrate protein remaining % > 80%)”. Besides, in experiment [2], the “Degradation of substrate protein GSPT1 (substrate protein remaining %)” value was “A (A is defined as 0% ≤ substrate protein remaining % ≤ 80%)”. Besides, the “Degradation of substrate protein IKZF3 (substrate protein remaining %)” value in experiment [3] is “B (B is defined as substrate protein remaining % > 80%)”. The “Degradation of substrate protein IKZF2 (substrate protein remaining %)” value in experiment [4] is listed as “B (B is defined as substrate protein remaining % > 80%)”. In addition, the “Degradation of substrate protein CK1a (substrate protein remaining %)” value in experiment [5] is listed as “A (A is defined as 0% ≤ substrate protein remaining % ≤ 80%)”. Also, the “Degradation of substrate protein WEE1 (substrate protein remaining %)” value in experiment [6] is “B (B is defined as substrate protein remaining % > 80%)”.
In the case of `O=Cc1cnc(NC2CCC(=O)NC2=O)nc1` (stereo not drawn) [GT-07367, 2-((2,6-dioxopiperidin-3-yl)amino)pyrimidine-5-carbaldehyde], the “Degradation of substrate protein IKZF1 (substrate protein remaining %)” value in experiment [1] was “B (B is defined as substrate protein remaining % > 80%)”. Further, in experiment [2], the “Degradation of substrate protein GSPT1 (substrate protein remaining %)” value is “A (A is defined as 0% ≤ substrate protein remaining % ≤ 80%)”. In experiment [3], the “Degradation of substrate protein IKZF3 (substrate protein remaining %)” value is “B (B is defined as substrate protein remaining % > 80%)”. The “Degradation of substrate protein IKZF2 (substrate protein remaining %)” value in experiment [4] is listed as “B (B is defined as substrate protein remaining % > 80%)”. The “Degradation of substrate protein CK1a (substrate protein remaining %)” value in experiment [5] is “A (A is defined as 0% ≤ substrate protein remaining % ≤ 80%)”. Also, in experiment [6], the “Degradation of substrate protein WEE1 (substrate protein remaining %)” value is “B (B is defined as substrate protein remaining % > 80%)”.
Regarding `NCc1cc(N2CCC(=O)NC2=O)ncc1F` [GT-07369, 1-(4-(aminomethyl)-5-fluoropyridin-2-yl)dihydropyrimidine-2,4(1H,3H)-dione], in experiment [1], the “Degradation of substrate protein IKZF1 (substrate protein remaining %)” value is “B (B is defined as substrate protein remaining % > 80%)”. Further, the “Degradation of substrate protein GSPT1 (substrate protein remaining %)” value in experiment [2] is “A (A is defined as 0% ≤ substrate protein remaining % ≤ 80%)”. In addition, the “Degradation of substrate protein IKZF3 (substrate protein remaining %)” value in experiment [3] was “B (B is defined as substrate protein remaining % > 80%)”. In addition, the “Degradation of substrate protein IKZF2 (substrate protein remaining %)” value in experiment [4] was “B (B is defined as substrate protein remaining % > 80%)”. Further, the “Degradation of substrate protein CK1a (substrate protein remaining %)” value in experiment [5] is recorded as “A (A is defined as 0% ≤ substrate protein remaining % ≤ 80%)”. Besides, the “Degradation of substrate protein WEE1 (substrate protein remaining %)” value in experiment [6] was “B (B is defined as substrate protein remaining % > 80%)”.

Values taken from patent US20260274829A1, “NEW E3 UBIQUITIN LIGASE LIGAND, PROTEIN DEGRADATION AGENT AND USE THEREOF” (GLUETACS THERAPEUTICS (SHANGHAI) CO., LTD., priority 2023, published 2026).
